From patent publication US20100285476A1, “METHODS OF IDENTIFYING HISTONE DEACETYLASE INHIBITORS USEFUL FOR NEUROLOGICAL DISORDERS” (priority 2007, published 2010)

Legend:
HDAC2 = HDAC2 (Homo sapiens, UniProt Q92769); test: HDAC enzyme inhibition assay, purified HDAC2; type: biochemical
frataxin (FXN1) mRNA = test: Frataxin mRNA expression in lymphocytes by quantitative RT-PCR; conditions: for frataxin mRNA expression, result in words / Fold Increase FXN1 Expr. (10 μM): 10 μM; for frataxin mRNA expression, result in words: human lymphocytes; for Fold Increase FXN1 Expr. (10 μM): human lymphocytes of normal donors, vs vehicle control
HDAC1 = HDAC1 (Homo sapiens, UniProt Q13547); test: HDAC enzyme inhibition assay, purified HDAC1; type: biochemical
Sequence of HDAC1 (Q13547 whole entry): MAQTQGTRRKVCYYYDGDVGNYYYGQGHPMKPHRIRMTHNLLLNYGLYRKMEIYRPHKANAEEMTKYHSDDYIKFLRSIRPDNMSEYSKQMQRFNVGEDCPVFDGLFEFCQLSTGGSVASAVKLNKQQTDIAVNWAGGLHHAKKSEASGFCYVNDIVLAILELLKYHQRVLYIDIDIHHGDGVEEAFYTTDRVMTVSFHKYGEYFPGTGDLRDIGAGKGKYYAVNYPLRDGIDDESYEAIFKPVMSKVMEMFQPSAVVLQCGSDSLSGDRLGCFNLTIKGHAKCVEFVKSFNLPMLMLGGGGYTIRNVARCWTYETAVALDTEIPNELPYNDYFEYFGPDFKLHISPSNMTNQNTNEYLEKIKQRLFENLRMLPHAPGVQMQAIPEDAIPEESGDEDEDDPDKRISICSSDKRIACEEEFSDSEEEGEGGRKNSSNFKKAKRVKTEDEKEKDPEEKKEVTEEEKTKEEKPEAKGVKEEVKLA

HDAC5 = HDAC5 (Homo sapiens, UniProt Q9UQL6); test: HDAC enzyme inhibition assay, purified HDAC5; type: biochemical
Sequence of HDAC5 (Q9UQL6 whole entry): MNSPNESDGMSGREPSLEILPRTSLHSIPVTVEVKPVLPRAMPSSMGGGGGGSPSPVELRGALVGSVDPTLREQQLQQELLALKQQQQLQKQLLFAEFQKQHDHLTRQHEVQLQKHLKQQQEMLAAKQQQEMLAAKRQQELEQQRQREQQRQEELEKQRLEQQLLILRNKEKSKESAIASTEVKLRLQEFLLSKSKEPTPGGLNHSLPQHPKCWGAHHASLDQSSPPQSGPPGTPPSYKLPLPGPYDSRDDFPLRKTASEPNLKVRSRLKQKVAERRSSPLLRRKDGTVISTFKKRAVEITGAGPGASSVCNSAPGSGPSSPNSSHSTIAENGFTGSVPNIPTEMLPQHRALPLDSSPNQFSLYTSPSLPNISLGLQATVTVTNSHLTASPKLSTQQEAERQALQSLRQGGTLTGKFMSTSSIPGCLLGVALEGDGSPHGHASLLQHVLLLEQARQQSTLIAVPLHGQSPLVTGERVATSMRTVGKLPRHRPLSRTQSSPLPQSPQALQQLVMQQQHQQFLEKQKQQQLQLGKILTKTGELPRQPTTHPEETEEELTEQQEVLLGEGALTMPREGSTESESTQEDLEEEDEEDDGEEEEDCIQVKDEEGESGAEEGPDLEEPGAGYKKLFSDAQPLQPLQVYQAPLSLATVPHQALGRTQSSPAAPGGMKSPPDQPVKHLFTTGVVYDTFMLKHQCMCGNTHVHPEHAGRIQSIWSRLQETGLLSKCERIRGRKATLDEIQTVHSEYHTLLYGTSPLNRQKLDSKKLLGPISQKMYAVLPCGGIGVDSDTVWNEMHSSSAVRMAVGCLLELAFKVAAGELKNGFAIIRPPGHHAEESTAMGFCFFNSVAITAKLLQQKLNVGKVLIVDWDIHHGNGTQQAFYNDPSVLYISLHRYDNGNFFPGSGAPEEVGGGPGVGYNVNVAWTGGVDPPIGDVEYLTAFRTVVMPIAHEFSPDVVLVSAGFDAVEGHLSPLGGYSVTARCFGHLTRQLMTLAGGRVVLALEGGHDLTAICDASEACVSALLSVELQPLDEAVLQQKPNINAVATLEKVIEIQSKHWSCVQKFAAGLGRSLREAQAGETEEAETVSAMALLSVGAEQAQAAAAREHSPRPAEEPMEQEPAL

HDAC3 = HDAC3 (Homo sapiens, UniProt O15379); test: HDAC enzyme inhibition assay, purified HDAC3; type: biochemical; conditions: for Relative Inhibitory Activity HDAC 1/3: IC50 for HDAC1 divided by IC50 for HDAC3; for Relative Inhibitory Activity HDAC 2/3: IC50 for HDAC2 divided by IC50 for HDAC3; for Relative Inhibitory Activity HDAC 5/3: IC50 for HDAC5 divided by IC50 for HDAC3; for IC50: purified HDAC3
Sequence of HDAC3 (O15379 whole entry): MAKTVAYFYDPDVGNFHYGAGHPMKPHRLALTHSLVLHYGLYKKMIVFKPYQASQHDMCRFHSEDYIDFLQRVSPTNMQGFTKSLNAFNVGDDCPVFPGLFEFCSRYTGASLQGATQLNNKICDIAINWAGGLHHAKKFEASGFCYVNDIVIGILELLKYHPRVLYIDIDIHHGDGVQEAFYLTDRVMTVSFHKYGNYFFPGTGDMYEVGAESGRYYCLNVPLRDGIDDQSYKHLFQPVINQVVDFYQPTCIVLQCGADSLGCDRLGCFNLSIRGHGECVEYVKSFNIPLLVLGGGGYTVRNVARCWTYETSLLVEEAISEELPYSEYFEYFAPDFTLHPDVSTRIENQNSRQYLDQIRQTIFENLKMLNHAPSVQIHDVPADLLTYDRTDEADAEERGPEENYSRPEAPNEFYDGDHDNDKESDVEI
Sequence of HDAC3 (Q9Y618 395-489 partner limits assumed): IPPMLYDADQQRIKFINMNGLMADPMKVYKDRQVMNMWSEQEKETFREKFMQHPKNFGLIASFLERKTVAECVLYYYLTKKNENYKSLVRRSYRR

HepG2 cells = test: Growth inhibition of HepG2 cells (CellTiter 96 AQueous One Solution); type: cell-based, human; conditions: for HepG2/HDAC3 (estimated therapeutic index): HepG2 growth IC50 divided by IC50 for HDAC3; for IC50: Homo sapiens, 72 hours; for IC50 / cytotoxicity, result in words: HepG2 cells
HDACs 1-10 = test: Panel of individual purified HDAC enzymes (HDACs 1-10); type: biochemical, human

Sequence of HDAC2 (Q92769 whole entry): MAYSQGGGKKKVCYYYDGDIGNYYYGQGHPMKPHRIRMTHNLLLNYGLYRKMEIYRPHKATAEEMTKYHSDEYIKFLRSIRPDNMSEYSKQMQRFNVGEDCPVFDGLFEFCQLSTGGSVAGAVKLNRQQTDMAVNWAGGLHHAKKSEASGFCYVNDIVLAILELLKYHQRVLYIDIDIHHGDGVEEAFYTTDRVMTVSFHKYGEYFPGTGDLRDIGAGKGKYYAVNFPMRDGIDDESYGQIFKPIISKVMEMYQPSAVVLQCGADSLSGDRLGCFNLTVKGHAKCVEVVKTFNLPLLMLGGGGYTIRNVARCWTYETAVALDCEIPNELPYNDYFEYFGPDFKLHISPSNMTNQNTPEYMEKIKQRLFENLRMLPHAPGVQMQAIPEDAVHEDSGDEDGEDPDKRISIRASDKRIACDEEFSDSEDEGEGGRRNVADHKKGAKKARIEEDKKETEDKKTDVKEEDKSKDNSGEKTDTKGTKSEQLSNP

| IC50 (HDAC2) [µM] | IC50 (HDAC1) [µM] | IC50 (HDAC5) [µM] | HDAC3 inhibition, result in words (HDAC3) | Relative Inhibitory Activity HDAC 1/3 (HDAC3) | Relative Inhibitory Activity HDAC 2/3 (HDAC3) | Relative Inhibitory Activity HDAC 5/3 (HDAC3) | IC50 (HDAC3) [µM] | IC50 (HepG2 cells) [µM] | inhibition of all HDACs tested, result in words (HDACs 1-10) | Compound | frataxin mRNA expression, result in words (frataxin (FXN1) mRNA) | Fold Increase FXN1 Expr. (10 μM) (frataxin (FXN1) mRNA) | HepG2/HDAC3 (estimated therapeutic index) (HepG2 cells) | cytotoxicity, result in words (HepG2 cells) | maximum observed increase of frataxin expression (frataxin (FXN1) mRNA; 1-30 μM, normal lymphocytes, compared to vehicle control (FIG. 1)) | frataxin expression, result in words (frataxin (FXN1) mRNA; normal lymphocytes or patient lymphocytes, all concentrations tested (1-30 μM)) |
| --- | --- | --- | --- | --- | --- | --- | --- | --- | --- | --- | --- | --- | --- | --- | --- | --- |
| 5.9 | 4.2 | 18.2 | did not show strong inhibition of HDAC3 | 0.45 | 0.65 | 2.0 | 9.1 | 112 |  | Cc1ccc(NC(=O)CCCCCC(=O)N2CCN(c3ccccc3)CC2)cc1 [Compound 6] | not active to increase frataxin expression | none | 12.3 |  |  |  |
|  |  |  |  |  |  |  |  |  | Sub-micromolar inhibition | CC(/C=C/C(=O)NO)=C\[C@@H](C)C(=O)c1ccc(N(C)C)cc1 [TSA, trichostatin A] |  |  |  |  |  |  |
| 2.92 | 1.19 | 1.63 | strong HDAC3 inhibitory activity | 3.7 | 9.1 | 5.1 | 0.32 | 10 |  | Cc1ccc(NC(=O)CCCCCC(=O)NO)cc1 [Compound 21] | effective to increase frataxin expression | 2.0 Fold | 31 | relatively low cytotoxicity |  |  |

Second part, the compound before the results:

| Compound | IC50 (HDAC2) [µM] | IC50 (HDAC1) [µM] | IC50 (HDAC5) [µM] | HDAC3 inhibition, result in words (HDAC3) | Relative Inhibitory Activity HDAC 1/3 (HDAC3) | Relative Inhibitory Activity HDAC 2/3 (HDAC3) | Relative Inhibitory Activity HDAC 5/3 (HDAC3) | IC50 (HDAC3) [µM] | IC50 (HepG2 cells) [µM] | inhibition of all HDACs tested, result in words (HDACs 1-10) | frataxin mRNA expression, result in words (frataxin (FXN1) mRNA) | Fold Increase FXN1 Expr. (10 μM) (frataxin (FXN1) mRNA) | HepG2/HDAC3 (estimated therapeutic index) (HepG2 cells) | cytotoxicity, result in words (HepG2 cells) | maximum observed increase of frataxin expression (frataxin (FXN1) mRNA; 1-30 μM, normal lymphocytes, compared to vehicle control (FIG. 1)) | frataxin expression, result in words (frataxin (FXN1) mRNA; normal lymphocytes or patient lymphocytes, all concentrations tested (1-30 μM)) |
| --- | --- | --- | --- | --- | --- | --- | --- | --- | --- | --- | --- | --- | --- | --- | --- | --- |
| Nc1ccccc1NC(=O)c1ccc(CNC(=O)OCc2cccnc2)cc1 [MS-275, reference compound] |  |  |  |  |  |  |  |  |  |  | did appreciably increase frataxin mRNA expression |  |  | may be too cytotoxic for long-term use |  |  |
| Cc1ccc(NC(=O)CCCCCC(=O)Nc2ccccc2N)cc1 [RGFA8, N^1-(2-aminophenyl)-N^7-p-tolylheptanediamide] |  |  |  |  |  |  |  |  |  |  |  |  |  |  | about 16 fold | increased expression of frataxin |
